The text below walks through data of patent US20050197350A1, “Novel quinoline, tetrahydroquinazoline, and pyrimidine derivatives and methods of treatment related to the use thereof” (TAISHO PHARMACEUTICAL CO., LTD., priority 2003, published 2005).

For the assay, the system named is MCH receptors. Briefly: MCH receptor activity class (method not given).
Setting [1] is: MCH receptor activity class 1-3 (percent of control at 10^-7 M or IC50).
Where [2] appears, read: class by percent of control at 10^-7 M or IC50.
Setting [3] is: MCH receptor, class by percent of control at 10^-7 M or IC50.
The mark [4] stands for this setting: activity class per percent of control at 10^-7 M or IC50.
Setting [5] is: class by percent of control at 10^−7 M or IC50.
Where [6] appears, read: activity class 1-3: percent of control at 10^-7 M or IC50.

SMILES strings stand for the structures. Like-named read-outs stand apart in the source and are kept apart here.

For `CN(C)c1cc(N[C@H]2CC[C@@H](CNC(=O)Nc3cc(F)cc(F)c3)CC2)nc2ccccc12` [compound 2403], the class under setting [1] was 3 (Class 3 The value of percent of control at 10^−7 M was more than 60% or the value of IC50 was more than 200 nM.).

On to `CN(C)c1cc(N[C@H]2CC[C@@H](NC(=O)Cc3c[nH]c4ccc(OCc5ccccc5)cc34)CC2)nc2ccccc12` [compound 748], for which, under setting [2], the class is on record as 3 (Class 3 The value of percent of control at 10^−7 M was more than 60% or the value of IC50 was more than 200 nM.).

For `Cc1ccccc1CNC(=O)N[C@H]1CC[C@@H](Nc2nc3c(c(N(C)C)n2)CCCC3)CC1` [compound 1716], the class under setting [2] is reported as 3 (Class 3 The value of percent of control at 10^−7 M was more than 60% or the value of IC50 was more than 200 nM.).

`Cc1cc(N(C)C)nc(N[C@H]2CC[C@@H](C(=O)NCc3ccc(Br)cc3F)CC2)n1` [Example 2585, cis-N-(4-bromo-2-fluorobenzyl)-4-{[4-(dimethylamino)-6-methylpyrimidin-2-yl]amino}cyclohexanecarboxamide]: the class stood at 1.

With `CN(C)c1ccnc(N[C@H]2CC[C@@H](NC(=O)C3CCCCC3)CC2)n1` [compound 315], under setting [2], the class is recorded as 3 (Class 3 The value of percent of control at 10^−7 M was more than 60% or the value of IC50 was more than 200 nM.).

Regarding `CN(C)c1ccnc(N[C@H]2CC[C@@H](NC(=O)c3ccc(C#N)cc3)CC2)n1` [compound 295], the class under setting [2] is given as 3 (Class 3 The value of percent of control at 10^−7 M was more than 60% or the value of IC50 was more than 200 nM.).

As for `CN(C)c1nc(N[C@H]2CC[C@@H](NC(=S)NCc3ccccc3F)CC2)nc2c1CCCC2` [compound 2037], under setting [3], the class is 3 (Class 3 The value of percent of control at 10^−7 M was more than 60% or the value of IC50 was more than 200 nM.).

Take `CN(C)c1cc(N[C@H]2CC[C@@H](CNC(=O)c3c(F)cccc3F)CC2)nc2ccccc12` [compound 229]: the class under setting [2] is 3 (Class 3 The value of percent of control at 10^−7 M was more than 60% or the value of IC50 was more than 200 nM.).

On to `CN(C)c1nc(N[C@H]2CC[C@@H](NC(=O)Nc3ccc(F)c([N+](=O)[O-])c3)CC2)nc2c1CCCC2` [compound 1826], for which the class under setting [2] is on record as 3 (Class 3 The value of percent of control at 10^−7 M was more than 60% or the value of IC50 was more than 200 nM.).

Take `CN(C)c1cccc(C(=O)N[C@H]2CC[C@@H](Nc3cc(N(C)C)c4ccccc4n3)CC2)c1` [compound 705]: under setting [2], the class is reported as 3 (Class 3 The value of percent of control at 10^−7 M was more than 60% or the value of IC50 was more than 200 nM.).

As to `CCOc1ccccc1CNC[C@H]1CC[C@@H](Nc2nccc(N(C)C)n2)CC1` [compound 1244], the class under setting [2] is given as 2 (Class 2: The value of percent of control at 10^−7 M was from 40% to 60% or the value of IC′50 was from 50 nM to 200 nM.).

For `CCOc1cc(CN[C@H]2CC[C@@H](Nc3cc(N(C)C)c4ccccc4n3)CC2)ccc1OC` [compound 1097], the class under setting [4] is given as 3 (Class 3 The value of percent of control at 10^−7 M was more than 60% or the value of IC50 was more than 200 nM.).

In the case of `CC(=O)c1ccc(NC(=S)N[C@H]2CC[C@@H](Nc3nc4c(c(N(C)C)n3)CCCC4)CC2)cc1` [compound 1926], the class under setting [3] is listed as 3 (Class 3 The value of percent of control at 10^−7 M was more than 60% or the value of IC50 was more than 200 nM.).

Take `Cc1nc(N[C@H]2CC[C@@H](NC(=O)c3ccccn3)CC2)nc(N(C)C)c1C` [compound 2835]: the class under setting [5] was 3 (Class 3 The value of percent of control at 10^−7 M was more than 60% or the value of IC50 was more than 200 nM.).

With `CC(=O)c1cccc(NC(=O)N[C@H]2CC[C@@H](Nc3nc4c(c(N(C)C)n3)CCCC4)CC2)c1` [compound 1806], the class under setting [2] is listed as 3 (Class 3 The value of percent of control at 10^−7 M was more than 60% or the value of IC50 was more than 200 nM.).

Take `Cc1cc(Br)cc(C)c1NC(=O)NC[C@H]1CC[C@@H](Nc2cc(N(C)C)c3ccccc3n2)CC1` [compound 2390, N-(4-bromo-2,6-dimethylphenyl)-N′-[(cis-4-{[4-(dimethylamino)quinolin-2-yl]amino}cyclohexyl)methyl]urea]: under setting [1], the class is reported as 1 (Class 1: The value of percent of control at 10^−7 M was less than 40% or the value of IC50 was less than 50 nM.).

Take `CN(C)c1ccnc(N[C@H]2CC[C@@H](CNC(=O)c3ccc(F)cc3)CC2)n1` [compound 382]: the class under setting [2] is given as 3 (Class 3 The value of percent of control at 10^−7 M was more than 60% or the value of IC50 was more than 200 nM.).

With `COc1c(Br)cc(Br)cc1CNC[C@H]1CC[C@@H](Nc2nccc(N(C)C)n2)CC1` [compound 1292], the class under setting [2] is given as 1 (Class 1: The value of percent of control at 10^−7 M was less than 40% or the value of IC50 was less than 50 nM.).

On to `CN(C)c1nc(N[C@H]2CC[C@@H](CNC(=O)c3ccc(Br)cc3)CC2)nc2c1CCCC2` [compound 584], for which the class (class 1-3 by percent of control at 10^-7 M or IC50) is on record as 3 (Class 3 The value of percent of control at 10^−7 M was more than 60% or the value of IC50 was more than 200 nM.).

As for `CN(C)c1nc(N[C@H]2CC[C@@H](CNCc3ccsc3)CC2)nc2c1CCCC2` [compound 1425], the class under setting [2] is recorded as 3 (Class 3 The value of percent of control at 10^−7 M was more than 60% or the value of IC50 was more than 200 nM.).

On to `C=C(C)c1cccc(C(C)(C)NC(=O)N[C@H]2CC[C@@H](Nc3cc(N(C)C)c4ccccc4n3)CC2)c1` [compound 2128], for which, under setting [2], the class is given as 3 (Class 3 The value of percent of control at 10^−7 M was more than 60% or the value of IC50 was more than 200 nM.).

Take `CN(C)c1ccnc(N[C@H]2CC[C@@H](NC(=O)Nc3ccc(F)cc3)CC2)n1` [compound 2184]: under setting [2], the class is on record as 3 (Class 3 The value of percent of control at 10^−7 M was more than 60% or the value of IC50 was more than 200 nM.).

In the case of `Cc1ccc(OC(=O)N[C@H]2CC[C@@H](Nc3nccc(N(C)C)n3)CC2)cc1` [compound 1634], the class under setting [6] is on record as 3 (Class 3 The value of percent of control at 10^−7 M was more than 60% or the value of IC50 was more than 200 nM.).

`Cc1cnc(N[C@H]2CC[C@@H](NC(=O)C(C)c3ccc(Cl)cc3)CC2)nc1N(C)C` (relative stereo) [compound 2874, 2-(4-chlorophenyl)-N-(cis-4-{[4-(dimethylamino)-5-methylpyrimidin-2-yl]amino}cyclohexyl)propanamide]: the class under setting [5] was 1 (Class 1: The value of percent of control at 10^−7 M was less than 40% or the value of IC50 was less than 50 nM.).

`COCCOC(=O)N[C@H]1CC[C@@H](Nc2cc(N(C)C)c3ccccc3n2)CC1` [compound 1545]: the class under setting [6] is on record as 3 (Class 3 The value of percent of control at 10^−7 M was more than 60% or the value of IC50 was more than 200 nM.).

In the case of `CN(C)c1nc(N[C@H]2CC[C@@H](CNC(=O)c3c(F)ccc(F)c3Cl)CC2)nc2c1CCCC2` [compound 671], the class under setting [2] is listed as 3 (Class 3 The value of percent of control at 10^−7 M was more than 60% or the value of IC50 was more than 200 nM.).

With `CN(C)c1cc(N[C@H]2CC[C@@H](CNC(=O)Cc3ccccc3I)CC2)nc2ccccc12` [compound 796], the class under setting [2] was 3 (Class 3 The value of percent of control at 10^−7 M was more than 60% or the value of IC50 was more than 200 nM.).

Consider `COc1ccc(OC)c(NC(=O)N[C@H]2CC[C@@H](Nc3nc4c(c(N(C)C)n3)CCCC4)CC2)c1` [compound 1849, N-(2,5-dimethoxyphenyl)-N′-(cis-4-{[4-(dimethylamino)-5,6,7,8-tetrahydroquinazolin-2-yl]amino}cyclohexyl)urea], for which, under setting [2], the class is recorded as 2 (Class 2: The value of percent of control at 10^−7 M was from 40% to 60% or the value of IC′50 was from 50 nM to 200 nM.).

As for `CN(C)c1ccnc(N[C@H]2CC[C@@H](NC(=S)Nc3ccc4c(c3)OCO4)CC2)n1` [compound 2350], the class under setting [1] is reported as 3 (Class 3 The value of percent of control at 10^−7 M was more than 60% or the value of IC50 was more than 200 nM.).

In the case of `CN(C)c1nc(N[C@H]2CC[C@@H](NC(=O)Nc3c(Cl)cc(Cl)cc3Cl)CC2)nc2c1CCCC2` [compound 1669], the class under setting [6] was 2 (Class 2: The value of percent of control at 10^−7 M was from 40% to 60% or the value of IC′50 was from 50 nM to 200 nM.).

On to `Cc1cc(C)c(C(=O)C(=O)N[C@H]2CC[C@@H](Nc3nc4c(c(N(C)C)n3)CCCC4)CC2)c(C)c1` [compound 1051], for which, under setting [4], the class is 3 (Class 3 The value of percent of control at 10^−7 M was more than 60% or the value of IC50 was more than 200 nM.).

Consider `CN(C)c1nc(N[C@H]2CC[C@@H](CNC(=O)Cc3ccccc3)CC2)nc2c1CCCC2` [compound 607], for which the class under setting [2] is given as 3 (Class 3 The value of percent of control at 10^−7 M was more than 60% or the value of IC50 was more than 200 nM.).

With `CC(C)S(=O)(=O)c1csc(C(=O)N[C@H]2CC[C@@H](Nc3cc(N(C)C)c4ccccc4n3)CC2)c1Cl` [compound 101], the class under setting [3] was 3 (Class 3 The value of percent of control at 10^−7 M was more than 60% or the value of IC50 was more than 200 nM.).

In the case of `Cc1ccc(NC(=O)NC[C@H]2CC[C@@H](Nc3nccc(N(C)C)n3)CC2)cc1` [compound 2441], the class under setting [1] is listed as 3 (Class 3 The value of percent of control at 10^−7 M was more than 60% or the value of IC50 was more than 200 nM.).

With `CC(C(=O)N[C@H]1CC[C@@H](Nc2nccc(N(C)C)n2)CC1)c1ccc(-c2ccccc2)c(F)c1` (relative stereo) [compound 847], under setting [2], the class is 3 (Class 3 The value of percent of control at 10^−7 M was more than 60% or the value of IC50 was more than 200 nM.).

Take `Cc1ccccc1C(=O)N[C@H]1CC[C@@H](Nc2ncc(C)c(N(C)C)n2)CC1` [compound 2917]: under setting [5], the class is 3 (Class 3 The value of percent of control at 10^−7 M was more than 60% or the value of IC50 was more than 200 nM.).

In the case of `CN(C)c1cc(N[C@H]2CC[C@@H](NC(=O)c3cccc(Cl)c3F)CC2)nc2ccccc12` [compound 59], the class under setting [3] was 3 (Class 3 The value of percent of control at 10^−7 M was more than 60% or the value of IC50 was more than 200 nM.).
